Data on 1 molecule can be found in patent US9394261B2, “Aryl amine substituted pyrimidine and quinazoline and their use as anticancer drugs” (National Yang-Ming University, priority 2012, dated 2016).

The test system of one series is PLC5 xenograft tumor. Kind of series: PLC5 xenograft tumor growth in nude mice. The following applies: p.o. daily, after 21 days of treatment, erlotinib 50 mg/kg/day, compounds 8 and 19 20 mg/kg/day.
In the next series the test system is Huh-7 xenograft tumor. Kind of series: Huh-7 xenograft tumor growth in nude mice. The following applies: erlotinib 50 mg/kg/day.
For series [1] the following is noted: tumor-bearing mice, p.o. daily for 3 weeks; erlotinib 50 mg/kg/day, compounds 8 and 19 20 mg/kg/day.

Structures are written as SMILES.

Description for Huh-7 xenograft tumor: (§1) The mice were housed in groups and maintained under standard laboratory conditions on a 12-hour light-dark cycle. They were given access to sterilized food and water ad libitum. All experimental procedures using these mice were performed in accordance with protocols approved by the Institutional Laboratory Animal Care and Use Committee of National Taiwan University. Each mouse was inoculated s.c. in the dorsal flank with 1×10^6 HCC cells suspended in 0.1 ml of serum-free medium containing 50% Matrigel (BD Biosciences, Bedford, Mass.). […] Controls received vehicle.
(§2) Tumor growth data points are reported as mean tumor volume±SE.
Description for PLC5 xenograft tumor: as §1, §2

For `C#Cc1cccc(Nc2ncnc3cc(OCCOC)c(OCCOC)cc23)c1` [erlotinib, reference compound], the “tumor inhibition, PLC5 cell” value with PLC5 xenograft tumor was 50.0%. Also, the “effect on Huh-7 tumor growth, in words” value with Huh-7 xenograft tumor (p.o. daily for 3 weeks, compounds 20 mg/kg/day (FIG. 7A-7B)) is “no effect on tumor growth”. Besides, the “tumor inhibition, Huh7 cell” value in the series with Huh-7 xenograft tumor (p.o. daily, after 21 days of treatment, compounds 8 and 19 20 mg/kg/day) was 8.8%. Further, in series [1], the “tolerability (signs of toxicity, body weight, necropsy)” value is “tolerated the treatments well without observable signs of toxicity”.
